Where two headings read alike, the source gives them in different places.
Experiments:
[1] = molecular target: T1, ENPP-1 ECD (Homo sapiens (Human), UniProt P22413); experiment: Assay 2: inhibition of ENPP1 hydrolysis of 2′,3′-cGAMP (AMP-Glo, […] enzyme)
Method: Assay 2: Compared to the conditions in Assay 1, this assay has a larger dynamic range and ensures the system is under steady-state conditions by reducing the enzyme concentration in the assay.
Test compounds were plated in a 3× dilution scheme in a 384 well plate. […] AMP Detection solution (10 μL) was added to each well, the plate centrifuged and incubated for 60 min.

[2] = molecular target: T1, ENPP-1 ECD; experiment: Assay 1: inhibition of ENPP1 hydrolysis of 2′,3′-cGAMP (AMP-Glo, […] enzyme)
Method: Assay 1: Test compounds were plated in a 3× dilution scheme in a 384 well plate. […] AMP Detection solution (100 μL) was added to each well, the plate centrifuged and incubated for 60 min.

[3] = molecular target: ENPP1 on MDA-MB-231 cells (Homo sapiens (Human), UniProt P22413); experiment: Assay 3: inhibition of ENPP1 hydrolysis of AMP p-nitrophenyl ester on MDA-MB-231 cells
Chain of ENPP1 on MDA-MB-231 cells (P22413 whole entry): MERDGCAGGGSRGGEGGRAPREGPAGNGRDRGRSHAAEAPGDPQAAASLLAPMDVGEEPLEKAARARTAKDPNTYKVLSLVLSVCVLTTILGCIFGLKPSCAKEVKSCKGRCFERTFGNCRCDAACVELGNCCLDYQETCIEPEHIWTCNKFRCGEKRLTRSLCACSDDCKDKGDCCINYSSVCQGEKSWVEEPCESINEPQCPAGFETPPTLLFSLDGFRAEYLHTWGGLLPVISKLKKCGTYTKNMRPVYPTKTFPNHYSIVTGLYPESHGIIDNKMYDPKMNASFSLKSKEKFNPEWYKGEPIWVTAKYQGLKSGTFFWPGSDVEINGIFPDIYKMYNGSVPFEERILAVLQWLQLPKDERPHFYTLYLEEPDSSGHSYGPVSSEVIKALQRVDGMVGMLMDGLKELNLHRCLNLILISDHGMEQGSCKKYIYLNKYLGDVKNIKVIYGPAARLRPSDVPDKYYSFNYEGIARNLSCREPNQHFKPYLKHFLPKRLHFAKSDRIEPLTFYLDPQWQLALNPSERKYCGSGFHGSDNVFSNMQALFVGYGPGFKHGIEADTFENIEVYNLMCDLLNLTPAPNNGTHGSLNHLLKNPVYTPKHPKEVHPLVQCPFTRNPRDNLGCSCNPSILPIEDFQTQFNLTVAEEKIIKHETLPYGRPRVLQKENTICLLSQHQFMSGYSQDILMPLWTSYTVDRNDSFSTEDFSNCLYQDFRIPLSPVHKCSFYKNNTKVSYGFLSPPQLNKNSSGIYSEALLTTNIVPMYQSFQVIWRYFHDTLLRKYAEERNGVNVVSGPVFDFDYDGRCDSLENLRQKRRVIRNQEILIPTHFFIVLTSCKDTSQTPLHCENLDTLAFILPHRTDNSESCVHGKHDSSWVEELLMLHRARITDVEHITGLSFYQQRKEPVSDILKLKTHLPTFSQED
Method: Hydrolysis of the p-nitrophenyl ester of AMP (pNP-AMP), an isostere of ATP, is selectively catalyzed by ENPP1 in the supernatant of MDA-MB-231 cell cultures. Inhibition of the hydrolysis of pNP-AMP by MDA-MB-231 at pH 7.4 and 37° C., is a good model of physiologically relevant activity of membrane-bound ENPP1 at disease-relevant expression levels.
MDA-MB-231 cells were harvested using TypLE Express Enzyme digestion and suspended in 100 μL of Leibovitz's L-15 Medium, 20% FBS, seeding the cells in a 96-well assay plate with 4.5×10^4 cells/well. Cells were incubated at 37° C. with 1% CO2 for 24 h. In a separate dilution plate, 2× of top dose of compound was prepared in phenol-red free 1640 medium without FBS and then 1:3 serial diluted in the same medium. The cell culture medium of L15 medium was aspirated carefully and cells were washed with PBS once, and 50 μL per well of test compound or DMSO blank were added to the assay plate. Substrate mix (50 μL; 0.5 mM pNP-AMP in phenol-red free 1640 media without FBS) was added for a pNP-AMP final concentration of 0.25 mM. The system was incubated at 37° C. for 3 h.

[4] = Assay 2 (KI), ENPP1 hydrolysis of 2′,3′-cGAMP, AMP-Glo, […] ENPP-1, 24 μM cGAMP
[5] = Assay 2 (KI), inhibition of ENPP1 hydrolysis of 2′,3′-cGAMP, no unit in Table 18 (Table 17 legend for this assay uses nM)
[6] = Assay 1 (IC50), ENPP1 hydrolysis of 2′,3′-cGAMP, AMP-Glo
[7] = Assay 1 (IC50), inhibition of ENPP1 hydrolysis of 2′,3′-cGAMP, no unit in Table 18 (Table 17 legend for this assay uses nM)
[8] = read-out: Assay 1 (IC50), ENPP1 hydrolysis of 2′,3′-cGAMP, AMP-Glo
[9] = read-out: Assay 3 (KI, app), apparent KI from IC50 via Cheng/Prusoff, pNP-AMP […], MDA-MB-231 cells, pH 7.4, 37° C., 3 h, unit inferred
[10] = read-out: Assay 2 (KI), ENPP1 hydrolysis of 2′,3′-cGAMP, AMP-Glo, […] ENPP-1, 24 μM cGAMP
[11] = read-out: Assay 2 (KI), inhibition of ENPP1 hydrolysis of 2′,3′-cGAMP, no unit in Table 18 (Table 17 legend for this assay uses nM)
[12] = read-out: Assay 1 (IC50), inhibition of ENPP1 hydrolysis of 2′,3′-cGAMP, no unit in Table 18 (Table 17 legend for this assay uses nM)

T1 sequence (P22413 98-925): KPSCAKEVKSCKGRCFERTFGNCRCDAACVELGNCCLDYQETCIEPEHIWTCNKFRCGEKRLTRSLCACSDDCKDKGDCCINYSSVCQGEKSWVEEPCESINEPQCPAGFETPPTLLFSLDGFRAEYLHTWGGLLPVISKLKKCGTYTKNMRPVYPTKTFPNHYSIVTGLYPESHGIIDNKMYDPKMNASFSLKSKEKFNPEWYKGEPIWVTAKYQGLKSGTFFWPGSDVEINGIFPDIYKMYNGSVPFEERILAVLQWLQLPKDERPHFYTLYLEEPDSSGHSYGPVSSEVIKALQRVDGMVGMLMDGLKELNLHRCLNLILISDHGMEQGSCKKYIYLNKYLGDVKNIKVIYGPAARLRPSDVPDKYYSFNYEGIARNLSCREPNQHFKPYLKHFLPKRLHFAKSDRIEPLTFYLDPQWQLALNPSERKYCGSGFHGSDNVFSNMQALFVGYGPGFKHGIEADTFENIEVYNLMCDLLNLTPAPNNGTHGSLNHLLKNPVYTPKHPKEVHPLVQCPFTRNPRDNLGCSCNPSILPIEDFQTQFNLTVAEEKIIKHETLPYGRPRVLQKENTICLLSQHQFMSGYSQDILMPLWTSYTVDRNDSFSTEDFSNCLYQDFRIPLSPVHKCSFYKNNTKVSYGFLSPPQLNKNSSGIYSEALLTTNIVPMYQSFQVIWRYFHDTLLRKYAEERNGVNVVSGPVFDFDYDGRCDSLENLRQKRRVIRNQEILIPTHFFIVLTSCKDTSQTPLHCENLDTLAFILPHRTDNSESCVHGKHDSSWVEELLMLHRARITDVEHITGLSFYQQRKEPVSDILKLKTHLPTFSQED

Compound | Ki [1, 4] | Ki [1, 5] | IC50 [2, 6] | IC50 [2, 7] | IC50 [2, 8] | Ki [3, 9] | Ki [1, 10] | Ki [1, 11] | IC50 [2, 12] | Ki [3]
COc1cc2ncnc(Oc3ccc(S(C)(=N)=O)cc3)c2cc1OC (centres unmarked) [Compound 18, (4-((6,7-dimethoxyquinazolin-4-yl)oxy)phenyl)(imino)(methyl)-λ^6-sulfanone] | 3 to 300 nM | 24 nM | 10 to 1000 nM | 180 nM | – | – | – | – | – | –
CS(=N)(=O)c1ccc(Oc2cnnc3ccccc23)cc1 (centres unmarked) [Compound 22, (4-(cinnolin-4-yloxy)phenyl)(imino)(methyl)-λ^6-sulfanone] | > 300 nM | 310 nM | – | 1200 nM | > 1000 nM | – | – | – | – | –
COc1cc2ncnc(-c3ccc4c(c3)CN([S@](C)(=N)=O)CC4)c2cc1OC [Compound 37b] | – | – | – | – | – | 21 nM | < 3 nM | 0.28 nM | – | –
COc1cc2ncc(C#N)c(Oc3ccc([S@](C)(=N)=O)cc3)c2cc1F [Compound 44b] | – | – | – | – | > 1000 nM | – | > 300 nM | 350 nM | 1900 nM | –
COc1ccc2c(N3CCC4(CC3)CCN([S@@](C)(=N)=O)C4)ccnc2c1 [Compound 55b] | – | – | – | – | 10 to 1000 nM | – | 3 to 300 nM | 7.3 nM | 45 nM | –
COc1ccc2c(Oc3ccc([S@](=N)(=O)C4CC4)cc3)ccnc2c1 [Compound 60b] | – | – | – | – | 10 to 1000 nM | – | 3 to 300 nM | 93 nM | 520 nM | –
COc1ccc2c(N3CCC(CCS(C)(=N)=O)CC3)ccnc2c1 (centres unmarked) [Compound 69, imino(2-(1-(7-methoxyquinolin-4-yl)piperidin-4-yl)ethyl)(methyl)-λ^6-sulfanone] | 3 to 300 nM | 10 nM | 10 to 1000 nM | 55 nM | – | – | – | – | – | –
COc1ccc2c(NCc3ccc(S(C)(=N)=O)cc3)ccnc2c1 (centres unmarked) [Compound 74, imino(4-(((7-methoxyquinolin-4-yl)amino)methyl)phenyl)(methyl)-λ^6-sulfanone] | < 3 nM | 1.7 nM | 10 to 1000 nM | 11 nM | – | – | – | – | – | –
COc1ccc2c(OCc3ccc([S@](C)(=N)=O)cc3)ccnc2c1 [Compound 75b] | – | – | – | – | > 1000 nM | – | 3 to 300 nM | 98 nM | – | –
COc1ccc2c(Oc3ccc(CS(C)(=N)=O)cc3)ccnc2c1 (centres unmarked) [Compound 79, imino(4-((7-methoxyquinolin-4-yl)oxy)benzyl)(methyl)-λ^6-sulfanone] | 3 to 300 nM | 220 nM | 10 to 1000 nM | 740 nM | – | – | – | – | – | –
COc1ccc2c(Oc3ccc([S@](C)(=N)=O)cc3)ccnc2c1 [Compound 80b] | – | – | – | – | 10 to 1000 nM | – | 3 to 300 nM | 13 nM | 180 nM | –
COc1cccc2c(Oc3ccc(S(C)(=N)=O)cc3)ncnc12 (centres unmarked) [Compound 84, imino(4-((8-methoxyquinazolin-4-yl)oxy)phenyl)(methyl)-λ^6-sulfanone] | 3 to 300 nM | 210 nM | – | 1300 nM | > 1000 nM | – | – | – | – | –
COc1cc2ncnc(N3CCC(CN[S@@](C)(=N)=O)CC3)c2cc1OC [Compound 94a] | – | – | – | – | – | 46 nM | < 3 nM | 0.78 nM | – | –
COc1ccc2c(-c3ccc(CCS(C)(=N)=O)cc3)ccnc2c1 (centres unmarked) [Compound 98, imino(4-(7-methoxyquinolin-4-yl)phenethyl)(methyl)-λ^6-sulfanone] | 3 to 300 nM | 25 nM | 10 to 1000 nM | 140 nM | – | – | – | – | – | –
CC[S@@](=N)(=O)c1ccc(Oc2ccnc3cc(OC)ccc23)cc1 [Compound 103a] | – | – | – | – | > 1000 nM | – | > 300 nM | 450 nM | 1600 nM | –
COc1cc2nccc(Oc3ccc([S@@](C)(=N)=O)cc3)c2cc1F [Compound 114b] | – | – | – | – | 10 to 1000 nM | – | 3 to 300 nM | > 25 nM | 77 nM | –
COc1cc2nccc(Oc3ccc(S(C)(=N)=O)c(F)c3)c2cc1OC (centres unmarked) [Compound 115, {4-[(6,7-dimethoxyquinolin-4-yl)oxy]-2-fluorophenyl}(imino)methyl-λ^6-sulfanone] | 3 to 300 nM | 13 nM | 10 to 1000 nM | 85 nM | – | – | – | – | – | –
COc1cc2nccc(Oc3ccc(S(C)(=N)=O)cc3F)c2cc1OC (centres unmarked) [Compound 116, {4-[(6,7-dimethoxyquinolin-4-yl)oxy]-3-fluorophenyl}(imino)methyl-λ^6-sulfanone] | 3 to 300 nM | 25 nM | 10 to 1000 nM | 220 nM | – | – | – | – | – | –

Compound | Ki [1, 4] | Ki [1, 5] | IC50 [2, 6] | IC50 [2, 7] | IC50 [2, 8] | Ki [3, 9] | Ki [1, 10] | Ki [1, 11] | IC50 [2, 12] | Ki [3]
COc1ccc2c(Oc3cccc(S(C)(=N)=O)c3)ccnc2c1 (centres unmarked) [Compound 117, imino({3-[(7-methoxyquinolin-4-yl)oxy]phenyl})methyl-λ^6-sulfanone] | 3 to 300 nM | 94 nM | 10 to 1000 nM | 180 nM | – | – | – | – | – | –
COc1cccc2c(Oc3ccc(S(C)(=N)=O)cc3)ccnc12 (centres unmarked) [Compound 118, imino({4-[(8-methoxyquinolin-4-yl)oxy]phenyl})methyl-λ^6-sulfanone] | 3 to 300 nM | 36 nM | 10 to 1000 nM | 160 nM | – | – | – | – | – | –
COc1ccc2c(Oc3ccc(S(C)(=N)=O)cc3)cnnc2c1 (centres unmarked) [Compound 119, imino({4-[(7-methoxycinnolin-4-yl)oxy]phenyl})methyl-λ^6-sulfanone] | 3 to 300 nM | 17 nM | 10 to 1000 nM | 66 nM | – | – | – | – | – | –
COc1cc2nccc(Oc3ccc([S@](=N)(=O)C4CC4)cc3)c2cc1F [Compound 120b] | – | – | – | – | 10 to 1000 nM | – | 3 to 300 nM | 4.8 nM | 37 nM | –
COc1ccc2c(Oc3ccc(S(C)(=N)=O)cc3)c(C#N)cnc2c1 (centres unmarked) [Compound 121, 4-{4-[imino(methyl)oxo-λ^6-sulfanyl]phenoxy}-7-methoxyquinoline-3-carbonitrile] | 3 to 300 nM | 4.2 nM | – | – | – | – | – | – | – | 250 nM
COc1ccc2c(Oc3ccc(S(=N)(=O)CC4CC4)cc3)ccnc2c1 (centres unmarked) [Compound 123, (cyclopropylmethyl)(imino){4-[(7-methoxyquinolin-4-yl)oxy]phenyl}-λ^6-sulfanone] | < 3 nM | 1.5 nM | – | – | – | – | – | – | – | 60 nM
CS(=N)(=O)c1ccc(Oc2ccnc3ccccc23)cc1 (centres unmarked) [Compound 125, imino(methyl)[4-(quinolin-4-yloxy)phenyl]-λ^6-sulfanone] | – | 110 nM | 10 to 1000 nM | 340 nM | – | – | – | – | – | –
COc1cc2nccc(Oc3ccc(S(C)(=N)=O)cc3)c2cc1Cl (centres unmarked) [Compound 126, {4-[(6-chloro-7-methoxyquinolin-4-yl)oxy]phenyl}(imino)methyl-λ^6-sulfanone] | 3 to 300 nM | 11 nM | 10 to 1000 nM | 39 nM | – | – | – | – | – | –
COc1cc2nccc(Oc3ccc(S(C)(=N)=O)nc3)c2cc1OC (centres unmarked) [Compound 129, {5-[(6,7-dimethoxyquinolin-4-yl)oxy]pyridin-2-yl}(imino)methyl-λ^6-sulfanone] | 3 to 300 nM | 39 nM | 10 to 1000 nM | 260 nM | – | – | – | – | – | –
COc1ccc2c(OCc3cccc([S@](C)(=N)=O)c3)ccnc2c1 [Compound 133b] | – | – | – | – | > 1000 nM | – | 3 to 300 nM | 49 nM | > 100 nM | –
COc1ccc2c(OCc3ccc(S(C)(=N)=O)cc3Br)ccnc2c1 (centres unmarked) [Compound 137, (3-bromo-4-{[(7-methoxyquinolin-4-yl)oxy]methyl}phenyl)(imino)methyl-λ^6-sulfanone] | 3 to 300 nM | 38 nM | 10 to 1000 nM | 200 nM | – | – | – | – | – | –
COc1ccc2c(N3CCC(CCS(C)(=N)=O)CC3)ncnc2c1 (centres unmarked) [Compound 139, imino({2-[1-(7-methoxyquinazolin-4-yl)piperidin-4-yl]ethyl})methyl-λ^6-sulfanone] | < 3 nM | 2.4 nM | 10 to 1000 nM | 15 nM | – | – | – | – | – | –
COc1cccc2c(N3CCC(CCS(C)(=N)=O)CC3)ccnc12 (centres unmarked) [Compound 140, imino({2-[1-(8-methoxyquinolin-4-yl)piperidin-4-yl]ethyl})methyl-λ^6-sulfanone] | 3 to 300 nM | 180 nM | 10 to 1000 nM | 880 nM | – | – | – | – | – | –
CS(=N)(=O)CCC1CCN(c2ccnc3ccccc23)CC1 (centres unmarked) [Compound 149, imino(methyl){2-[1-(quinolin-4-yl)piperidin-4-yl]ethyl}-λ^6-sulfanone] | > 300 nM | 410 nM | – | 1400 nM | > 1000 nM | – | – | – | – | –
COc1cc2ncnc(-c3ccc(CCS(C)(=N)=O)cc3)c2cc1OC (centres unmarked) [Compound 153, {2-[4-(6,7-dimethoxyquinazolin-4-yl)phenyl]ethyl}(imino)methyl-λ^6-sulfanone] | 3 to 300 nM | 12 nM | 10 to 1000 nM | 54 nM | – | – | – | – | – | –
COc1ccc2c(-c3ccc(CNS(C)(=N)=O)cc3)ccnc2c1 (centres unmarked) [Compound 162, N-{[4-(7-methoxyquinolin-4-yl)phenyl]methyl}methanesulfonoimidamide] | 3 to 300 nM | 6.9 nM | 10 to 1000 nM | 40 nM | – | – | – | – | – | –
COc1ccc2c(N3CCC(CCS(C)(=N)=O)CC3)ncnc2c1OC (centres unmarked) [Compound 165, (2-(1-(7,8-dimethoxyquinazolin-4-yl)piperidin-4-yl)ethyl)(imino)(methyl)-l6-sulfanone] | > 300 nM | 1400 nM | – | > 30000 nM | > 1000 nM | – | – | – | – | –

Source: patent US11780849B2, “Imino sulfanone inhibitors of ENPP1” (Volastra Therapeutics, Inc., priority 2020, dated 2023)
